{"source": "paper PMC4754331", "about": "“Programming of metabolic effects in C57BL/6JxFVB mice by in utero and lactational exposure to perfluorooctanoic acid” (Archives of Toxicology, 2015)", "key": {"ucp1": {"tested_on": "ucp1", "assay": "ucp1 gene expression in brown adipose tissue (qPCR)", "assay_type": "in vivo, mice", "conditions": "males and females; 300 and 3000 µg/kg vs control; data not shown", "experimental": "(§1) Some measurements included only control and one or two dose groups and could therefore not be analyzed as dose–responses. GTT was therefore evaluated by repeated-measures or nested (to account for litter covariance) two-way ANOVAs (Graphpad Prism 5.0, R) to detect differences at the different time points and between the areas under the curve (AUC). Activity measurement, ucp1 expression, WAT adipocyte size and the proxy for cell number were also tested with a nested ANOVA (R). Differences in distribution of BAT histopathology scores between experimental groups were tested for statistical significance in a two-tailed Fisher’s exact test."}, "[1]": {"assay": "Tolerable daily intake and human dietary exposure", "design": "species or system humans"}, "C57BL/6JxFVB hybrid mice [2]": {"tested_on": "C57BL/6JxFVB hybrid mice", "assay": "Body size, organ and fat pad weights at necropsy", "conditions": "for Emax: Mus musculus"}, "C57BL/6JxFVB hybrid mice [3]": {"tested_on": "C57BL/6JxFVB hybrid mice", "assay": "White adipose tissue adipocyte size and number (perirenal fat pad)", "assay_type": "in vivo", "conditions": "for White adipose tissue cell number: data not shown; for White adipose tissue adipocyte cell size: perirenal fat pad, 300 and 3000 combined", "experimental": "as §1"}, "C57BL/6JxFVB hybrid mice [4]": {"tested_on": "C57BL/6JxFVB hybrid mice", "assay": "Insulin tolerance test", "assay_type": "in vivo", "conditions": "males and females; 300 µg/kg vs control; 20 weeks; data not shown", "experimental": "(§2) One week later, at 20 weeks of age, an insulin tolerance test (ITT) was performed in the same animals as used for the GTT. Mice were not fasted to avoid low glucose baseline levels which, after an insulin injection, could lead to hypoglycemia. At the start of the experiment, a baseline blood sample was taken (0 min). […] The experiment was performed over two morning sessions, with 1.75 h between the first and last tested animal in each session, and animals were treated in a random order. At the age of 22–25 weeks, control and 300 µg/kg bw/d animals were used for a spontaneous locomotor activity test. After an acclimatization period of minimal 6 h, activity of the mice was continuously registered on four parallel platforms for 36 h (males) or 60 h (females), starting at the beginning of the dark phase (6.30 PM) of the first day."}, "[5]": {"conditions": "cited from earlier work"}, "C57BL/6JxFVB hybrid mice [6]": {"tested_on": "C57BL/6JxFVB hybrid mice", "assay": "Spontaneous locomotor activity test", "assay_type": "in vivo", "conditions": "males and females; 300 µg/kg vs control; data not shown", "experimental": "as §2\nSome measurements included only control and one or two dose groups and could therefore not be analyzed as dose–responses. GTT was therefore evaluated by repeated-measures or nested (to account for litter covariance) two-way ANOVAs (Graphpad Prism 5.0, R) to detect differences at the different time points and between the areas under the curve (AUC). Activity measurement, ucp1 expression, WAT adipocyte size and the proxy for cell number were also tested with a nested ANOVA (R). […]"}}, "note": "Where “and” joins values, the source holds several entries; their conditions need not be identical. Equal entries are not always repeated. Where two headings read alike, the source gives them in different places.", "data": [{"smiles": "O=C(O)C(F)(F)C(F)(F)C(F)(F)C(F)(F)C(F)(F)C(F)(F)C(F)(F)F", "note": "[PFOA, Perfluorooctanoic acid]", "values": [{"measurement": "ucp1 expression in brown adipose tissue", "setting": "ucp1", "value": "did not show an effect"}, {"measurement": "Factor by which the lowered TDI is higher than the human dietary exposure range in infants", "setting": "[1]", "value": 15}, {"measurement": "TDI when applying the developmental BMDL of 46 µg/kg bw/d", "setting": "[1]", "value": 230, "unit": "ng/kg bw/d"}, {"measurement": "Other relevant effects of PFOA", "setting": "C57BL/6JxFVB hybrid mice [2]; C57BL/6JxFVB, 3-10-30-100-300-1000-3000 µg/kg bw/d, diet, 2w pre-mating-PND21, this study", "value": "F: ↓ fat pad weights; ↓ serum cholesterol; ↓ serum triglycerides"}, {"measurement": "Perirenal fat pad weight: BMDL corrected for measured levels of PFOA in the feed (15–30 % lower than nominal)", "setting": "C57BL/6JxFVB hybrid mice [2]; F1 females", "value": "46–55 µg/kg bw/d and 46 µg/kg bw/d"}, {"measurement": "Femur length: BMDL", "setting": "C57BL/6JxFVB hybrid mice [2]; F1 females, CES 5 %", "value": 2423, "unit": "µg/kg bw/d"}, {"measurement": "Femur length: BMDU", "setting": "C57BL/6JxFVB hybrid mice [2]; F1 females, CES 5 %", "value": 6999, "unit": "µg/kg bw/d"}, {"measurement": "Femur weight: BMDL", "setting": "C57BL/6JxFVB hybrid mice [2]; F1 females, CES 5 %", "value": 989, "unit": "µg/kg bw/d"}, {"measurement": "Femur weight: BMDU", "setting": "C57BL/6JxFVB hybrid mice [2]; F1 females, CES 5 %", "value": 5060, "unit": "µg/kg bw/d"}, {"measurement": "Perirenal fat pad weight: BMDL", "setting": "C57BL/6JxFVB hybrid mice [2]; F1 females, CES 5 %", "value": 65, "unit": "µg/kg bw/d"}, {"measurement": "Perirenal fat pad weight: BMDU", "setting": "C57BL/6JxFVB hybrid mice [2]; F1 females, CES 5 %", "value": 362, "unit": "µg/kg bw/d"}, {"measurement": "Quadriceps femoris muscle weight: BMDL", "setting": "C57BL/6JxFVB hybrid mice [2]; F1 females, CES 5 %", "value": 432, "unit": "µg/kg bw/d"}, {"measurement": "Quadriceps femoris muscle weight: BMDU", "setting": "C57BL/6JxFVB hybrid mice [2]; F1 females, CES 5 %", "value": 1356, "unit": "µg/kg bw/d"}, {"measurement": "Emax", "setting": "C57BL/6JxFVB hybrid mice [2]; read-out: Femur length: max effect size, F1 females", "value": -4.2, "unit": "%"}, {"measurement": "Emax", "setting": "C57BL/6JxFVB hybrid mice [2]; read-out: Femur weight: max effect size, F1 females", "value": -8.6, "unit": "%"}, {"measurement": "Emax", "setting": "C57BL/6JxFVB hybrid mice [2]; read-out: Liver weight: max effect size, F1 males", "value": 16, "unit": "%"}, {"measurement": "Emax", "setting": "C57BL/6JxFVB hybrid mice [2]; read-out: Perigonadal fat pad weight: max effect size, F1 females", "value": -56, "unit": "%"}, {"measurement": "Emax", "setting": "C57BL/6JxFVB hybrid mice [2]; read-out: Perirenal fat pad weight: max effect size, F1 females", "value": -57, "unit": "%"}, {"measurement": "Emax", "setting": "C57BL/6JxFVB hybrid mice [2]; read-out: Quadriceps femoris muscle weight: max effect size, F1 females", "value": -19, "unit": "%"}, {"measurement": "Emax", "setting": "C57BL/6JxFVB hybrid mice [2]; read-out: Tibia length: max effect size, F1 females, exponential modeling only", "value": -5, "unit": "%"}, {"measurement": "Emax", "setting": "C57BL/6JxFVB hybrid mice [2]; read-out: Tibia length: max effect size, F1 males", "value": -1.6, "unit": "%"}, {"measurement": "Developmental BMDL of 46 µg/kg bw/d: times lower than the BMDL10 of 300 µg/kg bw/d used for the TDI", "setting": "C57BL/6JxFVB hybrid mice [2]; mouse, in vivo", "value": 6.5, "unit": "times"}, {"measurement": "White adipose tissue cell number", "setting": "C57BL/6JxFVB hybrid mice [3]; females", "value": "did not differ"}, {"measurement": "White adipose tissue adipocyte cell size", "setting": "C57BL/6JxFVB hybrid mice [3]; females, p < 0.05", "value": "significantly decreased"}, {"measurement": "White adipose tissue cell number", "setting": "C57BL/6JxFVB hybrid mice [3]; males", "value": "no differences"}, {"measurement": "White adipose tissue adipocyte cell size", "setting": "C57BL/6JxFVB hybrid mice [3]; males", "value": "no differences"}, {"measurement": "Glucose homeostasis: ITT", "setting": "C57BL/6JxFVB hybrid mice [4]", "value": "did not show an effect"}, {"measurement": "Elimination half-life in adult mice", "setting": "[5]; adult mice, ref Lau et al. [2006]", "value": 17, "unit": "days"}, {"measurement": "Time to steady-state level in serum of mice", "setting": "[5]; ref Lau et al. [2006]", "value": "≤ 1", "unit": "week"}, {"measurement": "Lowering of levels in offspring after maternal exposure was stopped", "setting": "[5]; within 6 weeks, ref Wolf et al. ([2007])", "value": 40, "unit": "times"}, {"measurement": "Energy expenditure: physical activity", "setting": "C57BL/6JxFVB hybrid mice [6]", "value": "did not show an effect"}]}]}
